Reference: patent publication US10710986B2, “PD-1/PD-L1 inhibitors” (Gilead Sciences, Inc., priority 2018, dated 2020)

Biological target: PD-1/PD-L1 (Homo sapiens (Human), UniProt Q9NZQ7)
Experiment: PD-1/PD-L1 biochemical protein-protein interaction assay (ALPHA)
Settings: 0.3 nM His tagged PD-L1, 2.5 nM biotinylated Fc-PD-1, 60 minutes at 25° C., read-out: IC50 PD-L1-PD1

PD-1/PD-L1, sequence (Q9NZQ7 19-238): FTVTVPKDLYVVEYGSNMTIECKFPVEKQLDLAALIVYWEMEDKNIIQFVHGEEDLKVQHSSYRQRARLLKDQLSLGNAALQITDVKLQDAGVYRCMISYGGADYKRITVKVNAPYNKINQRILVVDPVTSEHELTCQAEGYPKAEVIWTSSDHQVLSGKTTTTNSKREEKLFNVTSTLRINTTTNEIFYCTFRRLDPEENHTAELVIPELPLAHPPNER

| Structure (SMILES) | IC50 [nM] |
| --- | --- |
| COc1nc(-c2cccc(-c3cccc(-c4cnc(CNC[C@H]5CNC(=O)C5)c(OC)n4)c3Cl)c2Cl)cnc1CNC[C@H]1CNC(=O)C1 [compound 475] | 0.162 |
| COc1nc(-c2cccc(-c3cccc(-c4cnc(CNC[C@H]5CCC[C@@H]5O)c(OC)n4)c3Cl)c2Cl)cnc1CNC[C@H]1CCC[C@@H]1O [compound 476] | 0.622 |
| COc1nc(-c2cccc(-c3cccc(-c4cnc(CN5CC6CC5(CO)C6)c(OC)n4)c3Cl)c2Cl)cnc1CN1CC2CC1(CO)C2 [compound 477] | 0.246 |
| COc1nc(-c2cccc(-c3cccc(-c4cnc(CN5CC(C(C)(C)O)C5)c(OC)n4)c3Cl)c2Cl)cnc1CN1CC(C(C)(C)O)C1 [compound 478] | 0.064 |
| COc1nc(-c2cccc(-c3cccc(-c4cnc(CNC[C@@H]5CNC(=O)C5)c(OC)n4)c3Cl)c2Cl)cnc1CNC[C@@H]1CNC(=O)C1 [compound 480] | 0.064 |
| COc1nc(-c2cccc(-c3cccc(-c4cnc(CNC[C@@H]5CCC(=O)N5)c(OC)n4)c3Cl)c2Cl)cnc1CNC[C@H]1CNC(=O)C1 [compound 481] | 0.227 |
| COc1nc(-c2cccc(-c3cccc(-c4cnc(CN5CC[C@]6(O)C[C@@H]6C5)c(OC)n4)c3Cl)c2Cl)cnc1CNC[C@@H]1CCC(=O)N1 [compound 482] | 0.108 |
| COc1nc(-c2cccc(-c3cccc(-c4cnc(CN5CCCC5C(C)(C)O)c(OC)n4)c3Cl)c2Cl)cnc1CNC[C@@H]1CCC(=O)N1 (stereo partly shown) [compound 483] | 0.341 |
| COc1nc(-c2cccc(-c3cccc(-c4cnc(CN5CC(C(C)(C)O)C5)c(OC)n4)c3Cl)c2Cl)cnc1CNC[C@@H]1CCC(=O)N1 [compound 484] | 0.122 |
| COc1nc(-c2cccc(-c3cccc(-c4cnc(CN5C6COCC5C6)c(OC)n4)c3Cl)c2Cl)cnc1CNC[C@@H]1CCC(=O)N1 [compound 485] | 0.229 |
| COc1nc(-c2cccc(-c3cccc(-c4cnc(CNCC5(O)CCC5)c(OC)n4)c3Cl)c2Cl)cnc1CNC[C@@H]1CCC(=O)N1 [compound 486] | 0.29 |
| COc1nc(-c2cccc(-c3cccc(-c4cnc(CN5C[C@H](C)[C@@H](O)C5)c(OC)n4)c3Cl)c2Cl)cnc1CNC[C@@H]1CCC(=O)N1 [compound 487] | 0.123 |
| CNc1nc(-c2cccc(-c3cccc(-c4cnc(CNC[C@@H]5CCC(=O)N5)c(OC)n4)c3Cl)c2Cl)cnc1CN1CC2(C1)CN(C(C)=O)C2 [compound 488] | 0.064 |
| COc1nc(-c2cccc(-c3cccc(-c4cnc5c(CN6CC7(C6)CN(C(C)=O)C7)nn(C)c5n4)c3Cl)c2Cl)cnc1CN1CC2(C1)CN(C(C)=O)C2 [compound 489] | 0.332 |
| CCn1nc(CN2CC3(C2)CN(C(C)=O)C3)c2ncc(-c3cccc(-c4cccc(-c5cnc(CN6CC7(C6)CN(C(C)=O)C7)c(OC)n5)c4Cl)c3Cl)nc21 [compound 490] | 0.565 |
| COc1nc(-c2cccc(-c3cccc(-c4ccc5c(CN6CC7(C6)CN(C(C)=O)C7)cn(C)c5n4)c3Cl)c2Cl)cnc1CN1CC2(C1)CN(C(C)=O)C2 [compound 491] | 0.064 |
| COc1nc(-c2cccc(-c3cccc(-c4ccc5c(CN6CC(O)C6)cn(C)c5n4)c3Cl)c2Cl)cnc1CN1CC(O)C1 [compound 492] | 0.092 |

| Structure (SMILES) | IC50 [nM] |
| --- | --- |
| COc1nc(-c2cccc(-c3cccc(-c4ccc5c(CN6CC7(CNC(=O)C7)C6)cn(C)c5n4)c3Cl)c2Cl)cnc1CN1CC2(CNC(=O)C2)C1 [compound 493] | 0.109 |
| COc1nc(-c2cccc(-c3cccc(-c4ccc5c(CN6CC7(CCC(=O)N7)C6)cn(C)c5n4)c3Cl)c2Cl)cnc1CN1CC2(CCC(=O)N2)C1 [compound 494] | 0.139 |
| COc1nc(-c2cccc(-c3cccc(-c4ccc5c(CNC[C@@H]6CCC(=O)N6)cn(C)c5n4)c3Cl)c2Cl)cnc1CNC[C@@H]1CCC(=O)N1 [compound 495] | 0.247 |
| OC1CN(Cc2ncc(-c3cccc(-c4cccc(-c5cnc(CN6CC(O)C6)c(N6CCC6)n5)c4Cl)c3Cl)nc2N2CCC2)C1 [compound 496] | 0.386 |
| COc1nc(-c2cccc(-c3cccc(-c4cnc(CN5CC6(CNC(=O)C6)C5)c(OC)n4)c3Cl)c2F)ccc1CN1CC2(CNC(=O)C2)C1 [compound 497] | 0.276 |
| COc1nc(-c2cccc(-c3cccc(-c4cnc(CNC[C@@H]5CCC(=O)N5)c(OC)n4)c3Cl)c2F)ccc1CNC[C@@H]1CCC(=O)N1 [compound 498] | 0.169 |
| COc1nc(-c2cccc(-c3cccc(-c4cnc(CN5CC[C@@H](C(C)(C)O)C5)c(OC)n4)c3Cl)c2Cl)cnc1CN1CC[C@@H](C(C)(C)O)C1 [compound 499] | 0.203 |
| COc1nc(-c2cccc(-c3cccc(-c4cnc(CN5CC[C@H](C(C)(C)O)C5)c(OC)n4)c3Cl)c2Cl)cnc1CN1CC[C@H](C(C)(C)O)C1 [compound 500] | 0.232 |
| COc1nc(-c2cccc(-c3cccc(-c4cnc(CN5CC[C@@H](C(C)(C)O)C5)c(OC)n4)c3Cl)c2Cl)cnc1CNC[C@@H]1CCC(=O)N1 [compound 501] | 0.087 |
| COc1nc(-c2cccc(-c3cccc(-c4cnc(CN5CC[C@H](C(C)(C)O)C5)c(OC)n4)c3Cl)c2Cl)cnc1CNC[C@@H]1CCC(=O)N1 [compound 502] | 0.064 |
| COc1nc(-c2cccc(-c3cccc(-c4cnc(CN5CCC(C(N)=O)CC5)c(OC)n4)c3Cl)c2Cl)cnc1CNC[C@@H]1CCC(=O)N1 [compound 508] | 0.084 |
| COc1nc(-c2cccc(-c3cccc(-c4cnc(CNC5CCOCC5)c(OC)n4)c3Cl)c2Cl)cnc1CNC[C@@H]1CCC(=O)N1 [compound 509] | 0.106 |
| COc1nc(-c2cccc(-c3cccc(-c4cnc(CN5CC[C@](C)(O)C5)c(OC)n4)c3Cl)c2Cl)cnc1CNC[C@@H]1CCC(=O)N1 [compound 510] | 0.192 |
| COc1nc(-c2cccc(-c3cccc(-c4cnc(CN[C@H]5C[C@H](CO)C5)c(OC)n4)c3Cl)c2Cl)cnc1CNC[C@@H]1CCC(=O)N1 [compound 511] | 0.197 |
| COc1nc(-c2cccc(-c3cccc(-c4cnc(CNCCC(=O)O)c(OC)n4)c3Cl)c2Cl)ccc1CNC[C@@H]1CCC(=O)N1 [compound 512] | 0.101 |
| COc1nc(-c2cccc(-c3cccc(-c4cnc(CN5CC[C@H](C(=O)O)C5)c(OC)n4)c3Cl)c2Cl)ccc1CNC[C@@H]1CCC(=O)N1 [compound 513] | 0.064 |
| COc1nc(-c2cccc(-c3cccc(-c4cnc(CN5CC[C@@H](C(=O)O)C5)c(OC)n4)c3Cl)c2Cl)ccc1CNC[C@@H]1CCC(=O)N1 [compound 514] | 0.09 |

Now from value to molecule:

| IC50 [nM] | Structure (SMILES) |
| --- | --- |
| 0.342 | COc1nc(-c2cccc(-c3cccc(-c4cnc(CN5CCC(c6cc[nH]n6)C5)c(OC)n4)c3Cl)c2Cl)cnc1CNC[C@@H]1CCC(=O)N1 (stereo partly shown) [compound 515] |
| 0.064 | COc1nc(-c2cccc(-c3cccc(-c4cnc(CN5CC[C@H](O)[C@@H]5C)c(OC)n4)c3Cl)c2Cl)cnc1CNC[C@@H]1CCC(=O)N1 [compound 516] |
| 0.106 | COc1nc(-c2cccc(-c3cccc(-c4cnc(CN5CC[C@H](C(N)=O)C5)c(OC)n4)c3Cl)c2Cl)cnc1CNC[C@@H]1CCC(=O)N1 [compound 517] |
| 0.144 | COc1nc(-c2cccc(-c3cccc(-c4cnc(CNCCc5cnccn5)c(OC)n4)c3Cl)c2Cl)cnc1CNCCc1cnccn1 [compound 518] |
| 0.277 | COc1nc(-c2cccc(-c3cccc(-c4cnc(CN5C[C@@H](O)[C@@H](O)C5)c(OC)n4)c3Cl)c2Cl)cnc1CN1C[C@@H](O)[C@@H](O)C1 [compound 519] |
| 0.072 | COc1nc(-c2cccc(-c3cccc(-c4cnc(CNC[C@@H]5CCC(=O)N5)c(OC)n4)c3Cl)c2Cl)cnc1CNCCc1cncnc1 [compound 520] |
| 0.071 | COc1nc(-c2cccc(-c3cccc(-c4cnc(CNC[C@@H]5CCC(=O)N5)c(OC)n4)c3Cl)c2Cl)cnc1CNCCc1cnccn1 [compound 521] |
| 0.064 | COc1nc(-c2cccc(-c3cccc(-c4cnc(CN(CCO)CCO)c(OC)n4)c3Cl)c2Cl)cnc1CNC[C@@H]1CCC(=O)N1 [compound 522] |
| 0.181 | COc1nc(-c2cccc(-c3cccc(-c4cnc(CN5CCC(O)(CO)C5)c(OC)n4)c3Cl)c2Cl)cnc1CNC[C@@H]1CCC(=O)N1 (stereo partly shown) [compound 523] |
| 0.115 | COc1nc(-c2cccc(-c3cccc(-c4cnc(CN5C[C@@H](O)[C@@H](O)C5)c(OC)n4)c3Cl)c2Cl)cnc1CNC[C@@H]1CCC(=O)N1 [compound 524] |
| 0.105 | COc1nc(-c2cccc(-c3cccc(-c4cnc(CN5CCC(N6CCNC6=O)C5)c(OC)n4)c3Cl)c2Cl)cnc1CN1CCC(N2CCNC2=O)C1 (stereo not shown) [compound 525] |
| 0.168 | COc1nc(-c2cccc(-c3cccc(-c4cnc(CN5C[C@H](O)[C@@H](O)C5)c(OC)n4)c3Cl)c2Cl)cnc1CN1C[C@H](O)[C@@H](O)C1 [compound 526] |
| 0.089 | COc1nc(-c2cccc(-c3cccc(-c4cnc(CN5CC(C(N)=O)C5)c(OC)n4)c3Cl)c2Cl)cnc1CN1CC(C(N)=O)C1 [compound 527] |
| 0.064 | COc1nc(-c2cccc(-c3cccc(-c4cnc(CN5CCC(N6CCNC6=O)C5)c(OC)n4)c3Cl)c2Cl)cnc1CNC[C@@H]1CCC(=O)N1 (stereo partly shown) [compound 528] |
| 0.091 | COc1nc(-c2cccc(-c3cccc(-c4cnc(CN5C[C@H](O)[C@@H](O)C5)c(OC)n4)c3Cl)c2Cl)cnc1CNC[C@@H]1CCC(=O)N1 [compound 529] |
| 0.212 | COC[C@@H]1C[C@H](OC)CN1Cc1ncc(-c2cccc(-c3cccc(-c4cnc(CNC[C@@H]5CCC(=O)N5)c(OC)n4)c3Cl)c2Cl)nc1OC [compound 530] |
| 0.225 | COc1nc(-c2cccc(-c3cccc(-c4cnc(CN5CCC(C(=O)N(C)C)C5)c(OC)n4)c3Cl)c2Cl)cnc1CN1CCC(C(=O)N(C)C)C1 (stereo not shown) [compound 531] |
| 0.273 | COc1nc(-c2cccc(-c3cccc(-c4cnc(CN5CC[C@@H](C(N)=O)C5)c(OC)n4)c3Cl)c2Cl)cnc1CN1CC[C@@H](C(N)=O)C1 [compound 532] |
| 0.096 | COc1nc(-c2cccc(-c3cccc(-c4cnc(CN5C[C@@H](CO)[C@H](C)C5)c(OC)n4)c3Cl)c2Cl)cnc1CN1C[C@@H](CO)[C@H](C)C1 [compound 533] |
| 0.299 | COc1nc(-c2cccc(-c3cccc(-c4cnc(CN5CCC(C(=O)N(C)C)C5)c(OC)n4)c3Cl)c2Cl)cnc1CNC[C@@H]1CCC(=O)N1 (stereo partly shown) [compound 534] |
| 0.095 | COc1nc(-c2cccc(-c3cccc(-c4cnc(CN5CC[C@@H](C(N)=O)C5)c(OC)n4)c3Cl)c2Cl)cnc1CNC[C@@H]1CCC(=O)N1 [compound 535] |
